For one assay, the target named is SmBRD3(1,2) (Schistosoma mansoni, UniProt A0A5K4ESD7). Put plainly: biochemical. The assay is classed as binding. The note with it: for N number, binding to SmBRD3(1,2): ITC stoichiometry, n=1 ± error of curve fit; for Kd: ITC.
In another assay the target is SmBRD3(2) (Schistosoma mansoni, UniProt A0A5K4ESD7). Put plainly: biochemical. In kind it is binding. To be noted: for N number, binding to SmBRD3(2), Mean: mean of repeats.
A further assay has as its system S. mansoni adult worms. Put plainly: Ex vivo adult worm screening (motility, IVLEs, pairing). To be noted: 20 μM in 0.2% DMSO; 72 h. More on the design: species or system Schistosoma mansoni. Here is the method:
S. mansoni adult worms were recovered by hepatic portal vein perfusion from TO mice (Mus musculus HsdOLa:TO - Tuck Ordinary; Envigo, UK) that were percutaneously infected 7 weeks earlier with 180 cercariae.[65],[71] Following perfusion, schistosomes were washed and processed as previously described.[65],[66] Subsequently, schistosome pairs were seeded into 48 well tissue culture plates (1 worm pair/well, in duplicate) and dosed with the compounds (20 μM in 0.2% DMSO). DMSO (0.2%) and praziquantel (10 μM in 0.1% DMSO) were also included as negative and positive controls, respectively. Parasite motility was assessed by a digital image processing-based system (WormassayGP2),[66] modified after Wormassay.[72]In vitro laid eggs (IVLEs) were enumerated and the presence or absence of paired worms was noted.

For a further assay, the system named is S. mansoni miracidia. The experiment in a line: Ex vivo miracidia to sporocyst transformation screening. More on the design: species or system Schistosoma mansoni. The note with it: 0.5-25 μM in 1% DMSO; 48 h; 26 °C. Here is the method:
S. mansoni miracidia were obtained by hatching of schistosome eggs as previously described.[73] The resulting miracidial suspension was collected, washed with Chernin’s balanced salt solution (CBSS),[73] and enumerated prior to being used for ex vivo miracidia to sporocyst screens as previously reported.[66],[73] Each compound was tested at 0.5, 2.0, 5.0, 10, and 25 μM final concentrations (in 1% DMSO). Each treatment was set up in duplicate (15–25 miracidia/well). Each titration was performed in three independent experiments (two technical replicates per data point). Parasites cultured in CBSS (containing 1% DMSO) were included as negative controls. After 48 h incubation at 26 °C in the dark, dead, fully transformed and partially transformed miracidia were enumerated as previously described.[74],[75]

The test system of a further assay is S. mansoni schistosomula. Put plainly: Ex vivo schistosomula screening (Roboworm high content imaging). More on the design: species or system Schistosoma mansoni. The note with it: 72 h; for EC50: Schistosoma mansoni, ethyl esters (R=Et), 95% CI in brackets. Here is the method: A high-throughput imaging platform that quantifies both phenotype and motility ex vivo, was used to screen compounds against schistosomula; their effects were assessed as previously described.[20] Briefly, the schistosomula stage of S. mansoni was obtained by mechanical transformation of cercariae, dispensed into 384-well tissue culture plates, and dosed with 20 μM (Figure 7) or 10 μM (Figure S48) of each compound. Following 72 h coincubation of the schistosomula and compound, the plate was subjected to high content imaging to quantify the effects of each compound.
S. mansoni schistosomula were obtained by mechanical transformation from cercariae as previously described,[64] distributed in 384-well tissue culture plates (PerkinElmer, catalogue number 6007460) at 120 parasites/well and dosed with the selected compounds as previously reported.[65]−[68] For this study, each compound (as 10 mM DMSO stock solution) was initially tested at two concentration points (20 and 10 μM final concentration, in duplicates) in at least four independent screens (Z′ scores above 0.35).[69] Each screen contained both positive (10 μM auranofin (AUR) in 0.625% DMSO) and negative (0.625% DMSO) controls. […] Following 72 h schistosomula/compound coincubation, the plate was analyzed by the Roboworm platform.[70] EC50 values were calculated from the titrated concentrations by nonlinear regression, after log transformation of concentrations and data normalization using GraphPad Prism 7.02.

[1] abbreviates: SmBRD3(1,2) Kd, n = 1 ± error of the curve fit.
Setting [2] is: ITC, single run ± error of curve fit, Repeat 1.
[3] abbreviates: ITC, single value ± error of the curve fit or mean of 2-3 repeats ± s.e.m.
Setting [4] is: ITC, read-out: SmBRD3(2) pKd (converted).
Where [5] appears, read: ITC, single run ± error of curve fit, Repeat 2, read-out: SmBRD3(2) Kd, Repeat 2.
The mark [6] stands for this setting: read-out: SmBRD3(2) Kd, Repeat 1.
The mark [7] stands for this setting: 20 μM (Figure 7) or 10 μM (Figure S48).
Where [8] appears, read: read-out: Schistosomla Movement EC50.
Where [9] appears, read: read-out: Schistosomla Phenotype EC50.

Where two headings read alike, the source gives them in different places.

Chain of SmBRD3(2) (A0A5K4ESD7 entry or part of it): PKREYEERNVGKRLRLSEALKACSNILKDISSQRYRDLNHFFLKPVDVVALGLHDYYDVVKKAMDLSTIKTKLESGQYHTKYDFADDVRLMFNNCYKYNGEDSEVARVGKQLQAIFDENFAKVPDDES
Chain of SmBRD3(1,2) (A0A5K4ESD7 entry or part of it): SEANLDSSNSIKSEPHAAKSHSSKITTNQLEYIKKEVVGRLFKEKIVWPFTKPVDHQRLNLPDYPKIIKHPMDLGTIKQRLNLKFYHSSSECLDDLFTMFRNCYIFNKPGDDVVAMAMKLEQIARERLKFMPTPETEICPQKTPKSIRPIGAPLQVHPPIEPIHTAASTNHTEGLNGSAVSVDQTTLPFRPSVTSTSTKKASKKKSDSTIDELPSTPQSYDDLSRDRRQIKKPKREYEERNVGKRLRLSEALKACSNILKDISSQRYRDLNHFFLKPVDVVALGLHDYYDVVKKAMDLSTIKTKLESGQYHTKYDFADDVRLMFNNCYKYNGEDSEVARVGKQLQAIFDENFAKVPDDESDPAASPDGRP

For the compound `Cc1noc(C)c1-c1cc(O)cc(C(O)c2ccc(F)cc2)c1` (stereo not shown) [Compound 3, OXFBD02-F, reference compound], the “N number, binding to SmBRD3(1,2)” value on SmBRD3(1,2) was 1.05 ± 3.9e-2. For the same compound, the Kd is 1750 ± 301 nM on SmBRD3(1,2) (setting [1]) and 1580 nM on SmBRD3(1,2) (SmBRD3(1,2) pKd). Also, at SmBRD3(2) (setting [2]), the “SmBRD3(2) Kd, Repeat 1” value is “No binding”. The “SmBRD3(2) Kd” value on SmBRD3(2) (setting [3]) is on record as “No detectable binding”.

Regarding `CC(=O)N1c2ccc(-c3ccc(C(=O)O)cc3)cc2[C@H](Nc2ccc3ccoc3c2)C[C@@H]1C` [Compound 11, 4-((2S,4R)-1-Acetyl-4-[(1-benzofuran-6-yl)amino]-2-methyl-1,2,3,4-tetrahydroquinolin-6-yl)benzoic Acid], the “N number, binding to SmBRD3(2), Repeat 1” value at SmBRD3(2) (ITC stoichiometry, Repeat 1) worked out at 1.54 ± 2.5e-2. In addition, on SmBRD3(2) (ITC stoichiometry, Repeat 2), the “N number, binding to SmBRD3(2), Repeat 2” value came to 1.49 ± 3.0e-2. Also, the “N number, binding to SmBRD3(2), Mean” value on SmBRD3(2) (ITC stoichiometry) is 1.52. For the same compound, the Kd on SmBRD3(2) (setting [4]) is 1260 nM; at SmBRD3(2) (setting [5]), 1300 ± 236 nM; on SmBRD3(2) (read-out: SmBRD3(2) Kd), 1180 ± 120 nM; on SmBRD3(2) (setting [6]), 1060 ± 164 nM.

For `CC(=O)N1c2ccc(-c3ccc(C(=O)O)cc3)cc2[C@H](Nc2ccc3sccc3c2)C[C@@H]1C` [Compound 12, 4-((2S,4R)-1-Acetyl-4-[(1-benzothiophen-5-yl)amino]-2-methyl-1,2,3,4-tetrahydroquinolin-6-yl)benzoic Acid], the “N number, binding to SmBRD3(2), Repeat 1” value on SmBRD3(2) (ITC stoichiometry, Repeat 1) was 1.51 ± 1.8e-2. The “N number, binding to SmBRD3(2), Repeat 2” value at SmBRD3(2) (ITC stoichiometry, Repeat 2) came to 1.55 ± 1.4e-2. Also, on SmBRD3(2) (ITC stoichiometry), the “N number, binding to SmBRD3(2), Mean” value stood at 1.53. Also, the Kd on SmBRD3(2) (setting [4]) was 501 nM; on SmBRD3(2) (setting [5]), 543 ± 60.3 nM; at SmBRD3(2) (read-out: SmBRD3(2) Kd), 553 ± 9.5 nM; on SmBRD3(2) (setting [6]), 562 ± 79.1 nM.

In the case of `CC(=O)N1c2ccc(-c3ccc(C(=O)O)cc3)cc2[C@H](Nc2ccc3[nH]ccc3c2)C[C@@H]1C` [Compound 13, 4-{(2S,4R)-1-Acetyl-4-[(1H-indol-5-yl)amino]-2-methyl-1,2,3,4-tetrahydroquinolin-6-yl}benzoic Acid], on SmBRD3(2) (ITC stoichiometry, Repeat 1), the “N number, binding to SmBRD3(2), Repeat 1” value is given as 1.52 ± 2.0e-2. In addition, on SmBRD3(2) (ITC stoichiometry, Repeat 2), the “N number, binding to SmBRD3(2), Repeat 2” value is recorded as 1.71 ± 1.8e-2. Moreover, the “N number, binding to SmBRD3(2), Repeat 3” value on SmBRD3(2) (ITC stoichiometry, Repeat 3) amounted to 1.60 ± 1.6e-2. In addition, the “N number, binding to SmBRD3(2), Mean” value on SmBRD3(2) (ITC stoichiometry) was 1.61. The Kd on SmBRD3(2) (setting [4]) is 631 nM; at SmBRD3(2) (setting [5]), 652 ± 78.5 nM; on SmBRD3(2) (ITC, single run ± error of curve fit, Repeat 3, read-out: SmBRD3(2) Kd, Repeat 3) it was 672 ± 76 nM; at SmBRD3(2) (read-out: SmBRD3(2) Kd) it was 651 ± 12.7 nM; on SmBRD3(2) (setting [6]), 628 ± 94.9 nM.

Turning to `CCOC(=O)c1ccc(-c2ccc3c(c2)[C@H](Nc2ccc4ccsc4c2)C[C@H](C)N3C(C)=O)cc1` [Compound 16, Ethyl 4-{(2S,4R)-1-Acetyl-4-[(1-benzothiophen-6-yl)amino]-2-methyl-1,2,3,4-tetrahydroquinolin-6-yl}benzoate], on SmBRD3(2), the “SmBRD3(2) Kd” value is given as “No binding” and the “SmBRD3(2) Kd, Repeat 1” value is on record as “No binding”. For the same compound, in the assay with S. mansoni adult worms, the “Effect on adult worm movement” value is given as “substantial effects”. In addition, the “Effect on miracidia to sporocyst transformation” value with S. mansoni miracidia is given as “concentration-dependent inhibition”.

For `CCOC(=O)c1ccc(-c2ccc3c(c2)[C@H](Nc2ccc4ccoc4c2)C[C@H](C)N3C(C)=O)cc1` [Compound 18, Ethyl 4-{(2S,4R)-1-Acetyl-4-[(1-benzofuran-6-yl)amino]-2-methyl-1,2,3,4-tetrahydroquinolin-6-yl}benzoate], on SmBRD3(2), the “SmBRD3(2) Kd” value is reported as “No binding” and the “SmBRD3(2) Kd, Repeat 1” value is “No binding”. Further, in the assay with S. mansoni schistosomula, the “Antischistosomula activity at 10 μM” value is “active”. Further, in the assay with S. mansoni schistosomula (setting [7]), the “Effect on schistosomula motility” value is “substantial effects”. In the assay with S. mansoni schistosomula (setting [8]), the EC50 was determined as 3920 nM. Further, in the assay with S. mansoni schistosomula (setting [9]), the EC50 came to 2430 nM. Moreover, the “Effect on adult worm movement” value with S. mansoni adult worms is on record as “substantial effects”.

Turning to `CCOC(=O)c1ccc(-c2ccc3c(c2)[C@H](Nc2ccc4sccc4c2)C[C@H](C)N3C(C)=O)cc1` [Compound 19], at SmBRD3(2), the “SmBRD3(2) Kd” value was “No binding” and the “SmBRD3(2) Kd, Repeat 1” value was “No binding”.

For `CCOC(=O)c1ccc(-c2ccc3c(c2)[C@H](Nc2ccc4[nH]ccc4c2)C[C@H](C)N3C(C)=O)cc1` [Compound 20, Ethyl 4-{(2S,4R)-1-Acetyl-4-[(1H-indol-5-yl)amino]-2-methyl-1,2,3,4-tetrahydroquinolin-6-yl}benzoate], on SmBRD3(2), the “SmBRD3(2) Kd” value is “No binding” and the “SmBRD3(2) Kd, Repeat 1” value is listed as “No binding”. Further, the “Antischistosomula activity at 10 μM” value with S. mansoni schistosomula is “active”. The EC50 in the assay on S. mansoni schistosomula (setting [8]) came to 1810 nM. The 50% effective concentration (EC50) in the assay with S. mansoni schistosomula (setting [9]) is 2970 nM. In addition, the “Effect on adult worm movement” value in the assay on S. mansoni adult worms is on record as “substantial effects”.

In the case of `CCOC(=O)c1ccc(-c2ccc3c(c2)[C@H](Nc2ccc4ncsc4c2)C[C@H](C)N3C(C)=O)cc1` [Compound 21, Ethyl 4-{(2S,4R)1-Acetyl-4-[(1,3-benzothiazol-6-yl)amino]-2-methyl-1,2,3,4-tetrahydroquinolin-6-yl}benzoate], at SmBRD3(2), the “SmBRD3(2) Kd” value is reported as “No binding” and the “SmBRD3(2) Kd, Repeat 1” value was “No binding”. Further, in the assay with S. mansoni schistosomula, the “Antischistosomula activity at 10 μM” value was “active”. In the assay with S. mansoni schistosomula (setting [7]), the “Effect on schistosomula motility” value is “greatest effects” and the “Effect on schistosomula phenotype” value is given as “greatest effects”. For the same compound, the EC50 with S. mansoni schistosomula (setting [8]) amounted to 2850 nM. In addition, in the assay on S. mansoni schistosomula (setting [9]), the EC50 was 2140 nM. Also, the “Effect on adult worm movement” value in the assay with S. mansoni adult worms is “substantial effects”.

Regarding `Cc1noc(C)c1-c1cc(O)cc(C(O)c2cccnc2)c1` (stereo not shown) [OXFBD04 (4), OXFBD04, reference compound], the “N number, binding to SmBRD3(1,2)” value at SmBRD3(1,2) came to 1.39 ± 2.0e-2. Moreover, the Kd is 2950 ± 261 nM on SmBRD3(1,2) (setting [1]) and 3160 nM at SmBRD3(1,2) (SmBRD3(1,2) pKd). Also, the “SmBRD3(2) Kd, Repeat 1” value on SmBRD3(2) (setting [2]) is reported as “No binding”. Moreover, the “SmBRD3(2) Kd” value at SmBRD3(2) (setting [3]) is “No detectable binding”. In addition, the “Effect on miracidia to sporocyst transformation” value with S. mansoni miracidia was “modest effects”.

The EC50 is the concentration that produces a half-maximal response.

The values are drawn from PMC10726355, “Small Molecule Ligands of the BET-like Bromodomain, SmBRD3, Affect Schistosoma mansoni Survival, Oviposition, and Development” (Journal of Medicinal Chemistry, 2023).
